Data set [1] deals with T1, CXCR1 receptor (Homo sapiens, UniProt P25024).
T1 construct: β-galactosidase enzyme-complementation fragment (PathHunter system); host or cells: U2OS
T1 sequence (P25024 1-350): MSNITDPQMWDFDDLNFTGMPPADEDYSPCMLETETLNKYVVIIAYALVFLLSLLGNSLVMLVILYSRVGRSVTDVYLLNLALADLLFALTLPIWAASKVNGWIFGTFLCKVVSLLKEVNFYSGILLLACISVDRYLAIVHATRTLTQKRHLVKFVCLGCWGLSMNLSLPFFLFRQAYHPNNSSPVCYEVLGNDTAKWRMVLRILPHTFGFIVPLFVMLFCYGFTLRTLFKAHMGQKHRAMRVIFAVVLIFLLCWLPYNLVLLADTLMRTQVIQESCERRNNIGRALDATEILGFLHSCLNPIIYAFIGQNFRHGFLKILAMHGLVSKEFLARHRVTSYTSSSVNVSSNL
Put plainly: β-arrestin 2 recruitment test after CXCL8 activation, U2OS hCXCR1 β-arrestin cells. The class given is cell-based. The note with it: stimulation with CXCL8 (10 nM), read-out: CXCR1 (nM), IC50 = half inhibition concentration. On the procedure:
(§1) The in vitro affinity of the compounds of the present invention for the CXCR1 and CXCR2 receptors was determined on a functional test of the β-arrestin recruitment after receptor activation type.
(§2) In order to evaluate the direct interaction of the CXCR2 or CXCR1 receptor with β-arrestin 2, a β-arrestin 2 recruitment test for CXCR2 or CXCR1 based on β-galactosidase enzyme complementation (Olson K R, Eglen R M. Beta galactosidase complementation: a cell-based luminescent assay platform for drug discovery. Assay Drug Dev Technol. 2007 February; 5(1); 137-44), as established by DiscoveRx Corporation was used. The stimulation of these two cell lines with CXCL8 (10 nM) induces β-arrestin 2 recruitment, as indicated by a significant increase in the induction factor. […]
(§3) “PathHunter HEK293-CXCR2” or “U2OS hCXCR1 β-arrestin” cells (DiscoveRx Corporation) were seeded overnight at 10 000 cells/well (384-well format) in 20 μl of Opti MEM I medium. […] After incubation for 60 min at ambient temperature, the […] during the β-arrestin-CXCR2 interaction was measured for 0.3 s in an Envision 2102 Multilabel Reader (PerkinElmer Life and Analytical Sciences). The data were analyzed by means of a non-linear curve procedure using the XLFit4 exploitation software (IDBS) and the IC50 values were determined.

Data set [2] deals with T2, CXCR2 receptor (Homo sapiens, UniProt P25025).
T2 construct: β-galactosidase enzyme-complementation fragment (PathHunter system); host or cells: HEK293
T2 sequence (P25025 1-360): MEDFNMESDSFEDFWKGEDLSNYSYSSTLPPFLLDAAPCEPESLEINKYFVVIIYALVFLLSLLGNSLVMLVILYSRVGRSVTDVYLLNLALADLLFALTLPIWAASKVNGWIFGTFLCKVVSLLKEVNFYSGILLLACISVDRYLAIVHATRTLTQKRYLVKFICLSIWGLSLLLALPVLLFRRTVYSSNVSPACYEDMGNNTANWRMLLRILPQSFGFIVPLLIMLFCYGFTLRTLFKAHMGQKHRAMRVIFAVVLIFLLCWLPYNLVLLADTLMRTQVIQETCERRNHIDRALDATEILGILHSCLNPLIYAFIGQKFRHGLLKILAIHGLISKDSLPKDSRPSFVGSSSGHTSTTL
Put plainly: β-arrestin 2 recruitment test after CXCL8 activation, PathHunter HEK293-CXCR2 cells. The note with it: stimulation with CXCL8 (10 nM), read-out: CXCR2 (nM), IC50 = half inhibition concentration. The class given is cell-based. As to the method: as §1, §2, §3

One may read the melting point as the temperature, or range, at which the solid turns liquid. The molecule `Cc1ccc(C(Nc2c(Nc3cccc(C(=O)N(C)C)c3O)c(=O)c2=O)C2CCSCC2)o1` (stereo not drawn) [Example 2, 2-hydroxy-N,N-dimethyl-3-(2-{[(5-methylfuran-2-yl)-(tetrahydrothiopyran-4-yl)methyl]amino}-3,4-dioxocyclobut-1-enylamino)benzamide] returned a melting point of 173 to 175 °C. Also, the IC50 in data set [1] is 3390 nM. Moreover, in data set [2], the IC50 is 111 nM.
Molecule `Cc1ccc(C(Nc2c(Nc3cccc(C(=O)N(C)C)c3O)c(=O)c2=O)C2CCOCC2)o1` (stereo not drawn) [Example 1, 2-hydroxy-N,N-dimethyl-3-(2-{[(5-methylfuran-2-yl)-(tetrahydropyran-4-yl)methyl]amino}-3,4-dioxocyclobut-1-enylamino)benzamide] had a melting point of 137 to 140 °C. Moreover, in data set [1], the IC50 stood at 5440 nM. In addition, in data set [2], the IC50 is 212 nM.

The record behind these values is patent US9415039B2, “Disubstituted 3,4-diamino-3-cyclobutene-1,2-dione compounds for use in the treatment of chemokine-mediated diseases” (GALDERMA RESEARCH & DEVELOPMENT, priority 2011, dated 2016).
